# Read-outs that look alike come from different tables or passages of the source.
# Tests used:
# Assay in all cases: Kinase selectivity, P33-radiolabeled assay
# Format in all cases: biochemical
# Conditions in all cases: 10 μM ATP
# PDGFRa = target: T1, PDGFRa (Homo sapiens, UniProt P16234)
# T1 construct: purchased Reaction Biology Corp
# Procedure, shortened: (§1)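 Duplicate single-concentration testing used 10 μM compound. The ATP concentration was also 10 μM.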
# ITK = target: T2, ITK (Homo sapiens, UniProt Q08881)
# T2 construct: purchased Reaction Biology Corp
# T2 sequence (Q08881 1-620): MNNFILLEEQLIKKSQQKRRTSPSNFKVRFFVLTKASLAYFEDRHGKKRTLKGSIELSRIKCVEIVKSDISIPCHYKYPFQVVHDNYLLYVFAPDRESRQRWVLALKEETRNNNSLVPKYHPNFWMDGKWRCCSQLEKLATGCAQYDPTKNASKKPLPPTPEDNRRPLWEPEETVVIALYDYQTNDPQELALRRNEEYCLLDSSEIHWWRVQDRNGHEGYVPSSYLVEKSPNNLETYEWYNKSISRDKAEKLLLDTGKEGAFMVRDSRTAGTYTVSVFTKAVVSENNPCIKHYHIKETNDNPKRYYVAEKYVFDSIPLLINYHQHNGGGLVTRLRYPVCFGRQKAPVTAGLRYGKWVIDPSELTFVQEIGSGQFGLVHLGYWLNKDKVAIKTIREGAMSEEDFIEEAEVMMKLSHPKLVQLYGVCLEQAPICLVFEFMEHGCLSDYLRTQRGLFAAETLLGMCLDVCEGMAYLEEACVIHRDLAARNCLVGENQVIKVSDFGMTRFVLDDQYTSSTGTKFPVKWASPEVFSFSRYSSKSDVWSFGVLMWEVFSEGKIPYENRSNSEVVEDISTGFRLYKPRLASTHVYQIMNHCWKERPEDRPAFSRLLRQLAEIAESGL
# Procedure, shortened: as §1
# TIE2/TEK = target: T3, TIE2/TEK (Homo sapiens, UniProt Q02763)
# T3 construct: purchased Reaction Biology Corp
# Procedure, shortened: as §1
# TGFBR2 = target: T4, TGFBR2 (Homo sapiens, UniProt P37173)
# T4 construct: purchased Reaction Biology Corp
# Procedure, shortened: as §1
# GRK4 = target: T5, GRK4 (Homo sapiens, UniProt P32298)
# T5 construct: purchased Reaction Biology Corp
# Procedure, shortened: as §1
# PRKX = target: T6, PRKX (Homo sapiens, UniProt P51817)
# T6 construct: purchased Reaction Biology Corp
# T6 sequence (P51817 1-358): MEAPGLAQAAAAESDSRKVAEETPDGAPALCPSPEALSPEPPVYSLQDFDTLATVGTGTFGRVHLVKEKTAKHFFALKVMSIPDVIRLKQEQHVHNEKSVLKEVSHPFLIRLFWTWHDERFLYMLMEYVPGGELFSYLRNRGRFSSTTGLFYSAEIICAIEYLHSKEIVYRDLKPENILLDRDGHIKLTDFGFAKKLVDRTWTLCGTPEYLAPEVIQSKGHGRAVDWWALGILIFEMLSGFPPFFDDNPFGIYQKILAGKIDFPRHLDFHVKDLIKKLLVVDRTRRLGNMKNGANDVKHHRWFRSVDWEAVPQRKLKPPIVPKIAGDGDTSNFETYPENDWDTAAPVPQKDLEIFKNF
# Procedure, shortened: as §1
# MEKK3 = target: T7, MEKK3 (Homo sapiens, UniProt Q99759)
# T7 construct: purchased Reaction Biology Corp
# T7 sequence (Q99759 1-626): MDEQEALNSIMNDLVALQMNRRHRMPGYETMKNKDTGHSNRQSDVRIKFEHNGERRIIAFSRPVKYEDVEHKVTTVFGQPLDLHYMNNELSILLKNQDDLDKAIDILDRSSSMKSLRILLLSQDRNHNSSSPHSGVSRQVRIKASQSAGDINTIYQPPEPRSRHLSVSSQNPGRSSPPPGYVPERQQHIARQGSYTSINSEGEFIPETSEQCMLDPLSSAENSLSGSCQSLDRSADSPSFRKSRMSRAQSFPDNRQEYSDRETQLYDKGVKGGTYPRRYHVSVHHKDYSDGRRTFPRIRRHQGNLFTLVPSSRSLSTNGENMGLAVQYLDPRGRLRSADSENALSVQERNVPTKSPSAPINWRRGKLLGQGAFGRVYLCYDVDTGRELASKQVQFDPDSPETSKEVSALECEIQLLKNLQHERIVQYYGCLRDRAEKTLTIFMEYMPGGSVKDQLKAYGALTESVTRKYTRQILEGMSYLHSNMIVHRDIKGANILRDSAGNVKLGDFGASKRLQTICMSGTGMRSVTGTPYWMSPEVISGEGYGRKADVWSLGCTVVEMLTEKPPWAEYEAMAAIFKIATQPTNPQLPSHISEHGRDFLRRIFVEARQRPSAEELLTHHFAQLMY
# Procedure, shortened: as §1
# HGK/MAP4K4 = target: T8, HGK/MAP4K4 (Homo sapiens, UniProt O95819)
# T8 construct: purchased Reaction Biology Corp
# Procedure, shortened: as §1
# NEK4 = target: T9, NEK4 (Homo sapiens, UniProt P51957)
# T9 construct: purchased Reaction Biology Corp
# Procedure, shortened: as §1
# PKCa = target: T10, PKCa (Homo sapiens, UniProt P17252)
# T10 construct: purchased Reaction Biology Corp
# Procedure, shortened: as §1
# [1] = read-out: % Enzyme Activity (relative to DMSO controls) AVG
# [2] = read-out: % Enzyme Activity (relative to DMSO controls) Data 1
# [3] = read-out: % Enzyme Activity (relative to DMSO controls) Data 2
# T4 sequence (P37173 23-567): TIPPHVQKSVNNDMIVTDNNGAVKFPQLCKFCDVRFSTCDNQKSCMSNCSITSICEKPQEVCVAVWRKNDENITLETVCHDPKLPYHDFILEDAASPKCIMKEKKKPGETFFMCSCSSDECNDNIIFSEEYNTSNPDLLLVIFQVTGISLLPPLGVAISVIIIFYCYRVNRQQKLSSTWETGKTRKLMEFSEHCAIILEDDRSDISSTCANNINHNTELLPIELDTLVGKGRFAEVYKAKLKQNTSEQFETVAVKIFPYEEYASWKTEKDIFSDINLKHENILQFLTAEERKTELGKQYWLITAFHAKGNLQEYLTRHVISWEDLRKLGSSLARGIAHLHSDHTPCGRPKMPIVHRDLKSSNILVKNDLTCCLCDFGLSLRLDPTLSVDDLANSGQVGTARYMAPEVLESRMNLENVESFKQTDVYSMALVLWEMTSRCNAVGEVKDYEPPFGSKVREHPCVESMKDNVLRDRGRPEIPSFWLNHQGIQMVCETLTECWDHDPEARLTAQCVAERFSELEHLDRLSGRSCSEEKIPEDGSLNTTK
# T9 sequence (P51957 whole entry): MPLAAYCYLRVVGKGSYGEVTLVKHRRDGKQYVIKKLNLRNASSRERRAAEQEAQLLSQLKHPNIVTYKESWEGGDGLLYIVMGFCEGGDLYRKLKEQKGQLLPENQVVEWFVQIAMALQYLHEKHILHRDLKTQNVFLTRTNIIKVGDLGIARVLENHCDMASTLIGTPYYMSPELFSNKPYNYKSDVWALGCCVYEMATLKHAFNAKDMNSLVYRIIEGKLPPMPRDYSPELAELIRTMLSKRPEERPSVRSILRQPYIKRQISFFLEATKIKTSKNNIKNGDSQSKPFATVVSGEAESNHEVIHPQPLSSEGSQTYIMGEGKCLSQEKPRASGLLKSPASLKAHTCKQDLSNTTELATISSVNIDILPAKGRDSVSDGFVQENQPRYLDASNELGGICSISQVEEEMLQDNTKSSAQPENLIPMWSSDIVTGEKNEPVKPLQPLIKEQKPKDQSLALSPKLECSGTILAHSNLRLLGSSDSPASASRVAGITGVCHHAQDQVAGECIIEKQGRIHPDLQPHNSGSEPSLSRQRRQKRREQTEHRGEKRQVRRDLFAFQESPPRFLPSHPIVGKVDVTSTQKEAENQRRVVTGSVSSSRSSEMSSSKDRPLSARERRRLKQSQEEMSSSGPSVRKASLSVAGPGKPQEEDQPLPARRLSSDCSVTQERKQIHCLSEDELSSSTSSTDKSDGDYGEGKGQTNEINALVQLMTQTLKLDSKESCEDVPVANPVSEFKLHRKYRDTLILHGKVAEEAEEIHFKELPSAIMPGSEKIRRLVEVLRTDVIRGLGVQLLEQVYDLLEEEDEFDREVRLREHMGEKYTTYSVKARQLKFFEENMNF
# T1 sequence (P16234 24-1089): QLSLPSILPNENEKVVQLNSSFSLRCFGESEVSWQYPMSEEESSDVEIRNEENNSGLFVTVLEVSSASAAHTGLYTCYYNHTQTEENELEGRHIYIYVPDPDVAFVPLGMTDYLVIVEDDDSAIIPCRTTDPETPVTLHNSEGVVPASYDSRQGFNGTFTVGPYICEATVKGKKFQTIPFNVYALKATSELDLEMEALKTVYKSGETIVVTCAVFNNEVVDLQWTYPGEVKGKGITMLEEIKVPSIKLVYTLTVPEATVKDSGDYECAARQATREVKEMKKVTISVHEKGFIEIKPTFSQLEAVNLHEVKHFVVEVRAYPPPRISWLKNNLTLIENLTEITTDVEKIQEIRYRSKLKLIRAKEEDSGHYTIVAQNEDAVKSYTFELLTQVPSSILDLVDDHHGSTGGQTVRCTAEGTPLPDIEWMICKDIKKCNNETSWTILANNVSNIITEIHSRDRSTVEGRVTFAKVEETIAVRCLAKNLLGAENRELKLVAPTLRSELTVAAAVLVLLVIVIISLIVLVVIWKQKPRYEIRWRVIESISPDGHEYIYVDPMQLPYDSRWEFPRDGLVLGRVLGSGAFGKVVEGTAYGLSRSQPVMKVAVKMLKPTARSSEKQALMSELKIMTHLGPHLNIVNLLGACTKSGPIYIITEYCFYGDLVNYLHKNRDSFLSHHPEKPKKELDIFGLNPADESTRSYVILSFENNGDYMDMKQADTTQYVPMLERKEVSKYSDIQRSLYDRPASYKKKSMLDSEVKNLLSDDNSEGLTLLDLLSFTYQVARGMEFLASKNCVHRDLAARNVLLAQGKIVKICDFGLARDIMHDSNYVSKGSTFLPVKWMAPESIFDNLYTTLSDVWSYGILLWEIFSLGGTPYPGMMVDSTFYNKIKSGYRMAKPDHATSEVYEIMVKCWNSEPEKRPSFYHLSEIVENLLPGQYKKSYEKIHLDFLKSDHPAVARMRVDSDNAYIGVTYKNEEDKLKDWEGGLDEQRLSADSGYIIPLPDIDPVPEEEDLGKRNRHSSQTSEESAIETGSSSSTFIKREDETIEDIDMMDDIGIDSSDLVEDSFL
# T5 sequence (P32298 whole entry): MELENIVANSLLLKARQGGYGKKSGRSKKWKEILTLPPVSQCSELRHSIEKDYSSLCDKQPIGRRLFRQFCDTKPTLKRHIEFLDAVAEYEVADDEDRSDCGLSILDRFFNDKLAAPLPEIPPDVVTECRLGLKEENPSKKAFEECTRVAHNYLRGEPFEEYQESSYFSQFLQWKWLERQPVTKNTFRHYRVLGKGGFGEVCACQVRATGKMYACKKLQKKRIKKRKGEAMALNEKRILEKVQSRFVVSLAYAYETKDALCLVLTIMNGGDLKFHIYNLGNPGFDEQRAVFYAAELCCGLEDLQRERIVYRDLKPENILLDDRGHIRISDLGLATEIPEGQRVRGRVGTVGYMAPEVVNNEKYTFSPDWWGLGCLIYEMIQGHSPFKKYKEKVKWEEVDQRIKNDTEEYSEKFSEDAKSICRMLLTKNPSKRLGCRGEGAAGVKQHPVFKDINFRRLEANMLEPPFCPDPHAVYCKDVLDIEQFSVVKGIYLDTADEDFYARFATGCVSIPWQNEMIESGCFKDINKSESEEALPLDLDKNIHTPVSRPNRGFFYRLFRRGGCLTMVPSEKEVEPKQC
# T8 sequence (O95819 whole entry): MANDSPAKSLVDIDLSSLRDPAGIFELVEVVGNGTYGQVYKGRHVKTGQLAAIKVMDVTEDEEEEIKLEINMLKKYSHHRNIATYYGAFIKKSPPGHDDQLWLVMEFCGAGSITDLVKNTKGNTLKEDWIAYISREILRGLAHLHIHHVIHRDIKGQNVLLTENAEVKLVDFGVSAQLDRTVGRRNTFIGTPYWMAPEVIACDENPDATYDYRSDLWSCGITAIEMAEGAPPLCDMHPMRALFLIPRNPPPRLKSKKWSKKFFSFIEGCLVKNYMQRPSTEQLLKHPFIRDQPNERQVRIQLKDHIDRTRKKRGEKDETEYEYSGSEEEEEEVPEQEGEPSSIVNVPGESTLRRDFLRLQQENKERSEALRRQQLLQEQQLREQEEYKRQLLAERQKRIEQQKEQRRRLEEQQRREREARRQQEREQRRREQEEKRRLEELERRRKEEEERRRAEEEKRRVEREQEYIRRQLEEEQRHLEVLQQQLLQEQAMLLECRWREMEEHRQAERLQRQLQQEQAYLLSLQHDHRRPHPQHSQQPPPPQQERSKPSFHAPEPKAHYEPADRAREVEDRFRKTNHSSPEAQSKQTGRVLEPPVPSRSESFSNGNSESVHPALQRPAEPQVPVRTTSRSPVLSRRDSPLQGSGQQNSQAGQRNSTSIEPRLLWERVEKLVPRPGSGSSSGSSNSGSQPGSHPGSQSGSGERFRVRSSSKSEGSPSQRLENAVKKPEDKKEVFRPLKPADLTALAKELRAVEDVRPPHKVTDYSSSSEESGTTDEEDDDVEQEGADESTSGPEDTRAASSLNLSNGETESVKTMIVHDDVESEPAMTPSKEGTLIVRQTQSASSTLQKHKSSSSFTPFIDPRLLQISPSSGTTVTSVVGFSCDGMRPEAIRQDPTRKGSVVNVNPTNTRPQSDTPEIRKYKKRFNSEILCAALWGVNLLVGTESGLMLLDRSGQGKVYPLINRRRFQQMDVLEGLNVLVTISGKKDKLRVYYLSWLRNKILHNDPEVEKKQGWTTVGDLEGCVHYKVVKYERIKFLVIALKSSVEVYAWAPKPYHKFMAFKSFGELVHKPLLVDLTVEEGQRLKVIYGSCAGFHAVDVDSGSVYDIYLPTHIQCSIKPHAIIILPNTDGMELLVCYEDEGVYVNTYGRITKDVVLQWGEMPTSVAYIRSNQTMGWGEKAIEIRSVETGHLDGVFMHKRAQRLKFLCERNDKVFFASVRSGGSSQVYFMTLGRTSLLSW
structure (smiles),measurement,setting,value
CC(C)(C)C(=O)N1N=CC[C@H]1c1ccccc1 [GSK′963],remaining activity at 10 µM,PDGFRa; [1],104%
same,remaining activity at 10 µM,PDGFRa; [2],101%
same,remaining activity at 10 µM,PDGFRa; [3],106%
same,remaining activity at 10 µM,ITK; [1],102%
same,remaining activity at 10 µM,ITK; [2],95.2%
same,remaining activity at 10 µM,ITK; [3],108%
same,remaining activity at 10 µM,TIE2/TEK; [1],98.1%
same,remaining activity at 10 µM,TIE2/TEK; [2],95.5%
same,remaining activity at 10 µM,TIE2/TEK; [3],101%
same,remaining activity at 10 µM,TGFBR2; [1],116%
same,remaining activity at 10 µM,TGFBR2; [2],119%
same,remaining activity at 10 µM,TGFBR2; [3],114%
same,remaining activity at 10 µM,GRK4; [1],97.9%
same,remaining activity at 10 µM,GRK4; [2],97.9%
same,remaining activity at 10 µM,GRK4; [3],97.8%
same,remaining activity at 10 µM,PRKX; [1],107%
same,remaining activity at 10 µM,PRKX; [2],106%
same,remaining activity at 10 µM,PRKX; [3],107%
same,remaining activity at 10 µM,MEKK3; [1],119%
same,remaining activity at 10 µM,MEKK3; [2],122%
same,remaining activity at 10 µM,MEKK3; [3],115%
same,remaining activity at 10 µM,HGK/MAP4K4; [1],95.7%
same,remaining activity at 10 µM,HGK/MAP4K4; [2],94.5%
same,remaining activity at 10 µM,HGK/MAP4K4; [3],97%
same,remaining activity at 10 µM,NEK4; [1],102%
same,remaining activity at 10 µM,NEK4; [2],102%
same,remaining activity at 10 µM,NEK4; [3],102%
same,remaining activity at 10 µM,PKCa; [1],96.9%
same,remaining activity at 10 µM,PKCa; [2],95.7%
same,remaining activity at 10 µM,PKCa; [3],98%

# Reference: article PMC4979471 (Cell Death Discovery, 2015)
